Data: PubChem BioAssay (NCI)
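Each compound was tested at five concentrations against cells in 96-well plates for 48 hours. GI50 = concentration required for 50% inhibition of growth. Definition used: TGI = concentration required for complete inhibition of growth.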

Tests used:
Test in all cases: growth of human tumour cells (NCI), 48 h
[1] = system: A498 renal
[2] = system: SF-268 CNS
[3] = system: BT-549 breast
[4] = system: OVCAR-5 ovarian
[5] = system: CCRF-CEM leukemia
[6] = system: TK-10 renal
[7] = system: RXF 393 renal
[8] = system: SK-MEL-28 melanoma
[9] = system: DU-145 prostate
[10] = system: SNB-75 CNS
[11] = system: OVCAR-3 ovarian
[12] = system: SW-620 colon
[13] = system: NCI-H23 lung
[14] = system: EKVX NSCLC
[15] = system: MDA-MB-435
[16] = system: KM12 colon
[17] = system: MDA-MB-231 breast
[18] = system: SR leukemia
[19] = system: SK-MEL-5 melanoma
[20] = system: IGROV1 ovarian
[21] = system: LOX IMVI melanoma
[22] = system: ACHN renal
[23] = system: HCC-2998 colon
[24] = system: MALME-3M melanoma
[25] = system: UO-31 renal
[26] = system: MCF7 breast
[27] = system: NCI-H460 lung
[28] = system: HOP-92 NSCLC
[29] = system: SF-295 CNS
[30] = system: CAKI-1 renal
[31] = system: SN12C renal
[32] = system: PC-3 prostate
[33] = system: UACC-62 melanoma
[34] = system: HCT-15 colon
[35] = system: OVCAR-4 ovarian
[36] = system: SF-539 CNS
[37] = system: SK-MEL-2 melanoma
[38] = system: SNB-19 CNS
[39] = system: UACC-257 melanoma
[40] = system: M14 melanoma
[41] = system: MOLT-4 leukemia
[42] = system: OVCAR-8 ovarian
[43] = system: NCI-H522 lung
[44] = system: SK-OV-3 ovarian
[45] = system: HL-60(TB) leukemia
[46] = system: HCT-116 colon
[47] = system: HOP-62 NSCLC
[48] = system: U251 CNS
[49] = system: K-562 leukemia
[50] = system: A549 NSCLC

CN1CCN(CCCOc2ccc3ncnc(Nc4ccc(OCc5cccc(F)c5)c(Cl)c4)c3c2)CC1
GI50 [1]: 1130 nM
TGI [1]: 2420 nM
GI50 [2]: 1490 nM
TGI [2]: 3150 nM
GI50 [3]: 1580 nM
TGI [3]: 3000 nM
GI50 [4]: 1600 nM
TGI [4]: 3050 nM
GI50 [5]: 1570 nM
TGI [5]: 3530 nM
GI50 [6]: 577 nM
TGI [6]: 2320 nM
GI50 [7]: 1580 nM
TGI [7]: 3070 nM
GI50 [8]: 1720 nM
TGI [8]: 3190 nM
GI50 [9]: 1100 nM
TGI [9]: 2350 nM
GI50 [10]: 1380 nM
TGI [10]: 2710 nM
GI50 [11]: 1480 nM
TGI [11]: 2920 nM
GI50 [12]: 1730 nM
TGI [12]: 3280 nM
GI50 [13]: 1690 nM
TGI [13]: 3200 nM
GI50 [14]: 1140 nM
TGI [14]: 2470 nM
GI50 [15]: 1610 nM
TGI [15]: 3110 nM
GI50 [16]: 1730 nM
TGI [16]: 3210 nM
GI50 [17]: 1620 nM
TGI [17]: 3100 nM
GI50 [18]: 379 nM
TGI [18]: 1790 nM
GI50 [19]: 1670 nM
TGI [19]: 3040 nM
GI50 [20]: 1020 nM
TGI [20]: 2550 nM
GI50 [21]: 1750 nM
TGI [21]: 3230 nM
GI50 [22]: 639 nM
TGI [22]: 1950 nM
GI50 [23]: 1700 nM
TGI [23]: 3170 nM
GI50 [24]: 1650 nM
TGI [24]: 3230 nM
GI50 [25]: 1180 nM
TGI [25]: 2490 nM
GI50 [26]: 1500 nM
TGI [26]: 2960 nM
GI50 [27]: 1780 nM
TGI [27]: 3380 nM
GI50 [28]: 1150 nM
TGI [28]: 2540 nM
GI50 [29]: 1770 nM
TGI [29]: 3190 nM
GI50 [30]: 1130 nM
TGI [30]: 2340 nM
GI50 [31]: 1630 nM
TGI [31]: 3100 nM
GI50 [32]: 1740 nM
TGI [32]: 3390 nM
GI50 [33]: 1700 nM
TGI [33]: 3240 nM
GI50 [34]: 1060 nM
TGI [34]: 2350 nM
GI50 [35]: 1570 nM
TGI [35]: 3350 nM
GI50 [36]: 1670 nM
TGI [36]: 3090 nM
GI50 [37]: 2070 nM
TGI [37]: 4040 nM
GI50 [38]: 1500 nM
TGI [38]: 2870 nM

Cc1ccc(C2CC(c3cccc(Nc4ccncc4)c3)=NN2c2cc(Cl)cc(Cl)c2)cc1 (stereo not drawn)
GI50 [1]: 1210 nM
TGI [1]: 2470 nM
GI50 [3]: 1740 nM
TGI [3]: 3380 nM
GI50 [4]: 1650 nM
TGI [4]: 3060 nM
GI50 [5]: 3470 nM
TGI [5]: > 100000 nM
GI50 [39]: 1880 nM
TGI [39]: 3830 nM
GI50 [6]: 1640 nM
TGI [6]: 3070 nM
GI50 [40]: 1930 nM
TGI [40]: 3990 nM
GI50 [8]: 1770 nM
TGI [8]: 3300 nM
GI50 [9]: 1900 nM
TGI [9]: 3520 nM
GI50 [10]: 1230 nM
TGI [10]: 2620 nM
GI50 [41]: 1940 nM
TGI [41]: 4440 nM
GI50 [11]: 1720 nM
TGI [11]: 3230 nM
GI50 [12]: 1690 nM
TGI [12]: 3260 nM
GI50 [13]: 1760 nM
TGI [13]: 3350 nM
GI50 [14]: 1550 nM
TGI [14]: 2940 nM
GI50 [42]: 2210 nM
TGI [42]: 5240 nM
GI50 [43]: 1730 nM
TGI [43]: 3580 nM
GI50 [15]: 1660 nM
TGI [15]: 3110 nM
GI50 [16]: 1650 nM
TGI [16]: 3040 nM
GI50 [19]: 1760 nM
TGI [19]: 3170 nM
GI50 [20]: 1690 nM
TGI [20]: 3230 nM
GI50 [21]: 1550 nM
TGI [21]: 2890 nM
GI50 [44]: 1680 nM
TGI [44]: 3380 nM
GI50 [22]: 1650 nM
TGI [22]: 3000 nM
GI50 [45]: 1830 nM
TGI [45]: 4110 nM
GI50 [23]: 1520 nM
TGI [23]: 2850 nM
GI50 [46]: 1850 nM
TGI [46]: 3850 nM
GI50 [47]: 1910 nM
TGI [47]: 4530 nM
GI50 [24]: 1670 nM
TGI [24]: 3250 nM
GI50 [25]: 1310 nM
TGI [25]: 2590 nM
GI50 [26]: 1890 nM
TGI [26]: 4100 nM
GI50 [27]: 1830 nM
TGI [27]: 3550 nM
GI50 [28]: 1370 nM
TGI [28]: 2780 nM
GI50 [29]: 1720 nM
TGI [29]: 3100 nM
GI50 [30]: 1540 nM
TGI [30]: 3030 nM
GI50 [31]: 1710 nM
TGI [31]: 3240 nM
GI50 [32]: 1580 nM
TGI [32]: 3200 nM
GI50 [33]: 1770 nM
TGI [33]: 3250 nM
GI50 [34]: 1670 nM
TGI [34]: 3100 nM
GI50 [35]: 1580 nM
TGI [35]: 3100 nM
GI50 [36]: 1650 nM
TGI [36]: 3050 nM
GI50 [37]: 2000 nM
TGI [37]: 3990 nM
GI50 [48]: 1860 nM
TGI [48]: 3880 nM
GI50 [49]: 1850 nM
TGI [49]: 4580 nM
GI50 [50]: 1780 nM
TGI [50]: 3600 nM
GI50 [38]: 1720 nM
TGI [38]: 3450 nM
